The values that follow come from patent publication US11787849B2, “Methods and compounds for eliminating immune responses to therapeutic agents” (IMCYSE SA, priority 2015, dated 2023).

Assay [1] concerns CD4+ T cells. To be noted: peptide adsorbed on aluminum hydroxide, SC injection; known from WO200817517; cited from earlier work.
Assay [2] relates to CD4+ T cells. Description: Vaccination with peptide (redox motif + epitope) adsorbed on aluminum hydroxide, SC: induction of cytolytic CD4+ T cells. It is filed as in vivo, human. The source says: A vaccination strategy making use of a mixture of two peptides encompassing the minimal binding sequence of class II-restricted epitopes and a thioreductase motif is therefore established.
Administration of a mixture of these two peptides adsorbed on aluminum hydroxide elicits specific CD4+ T cells with cytolytic properties.
Patients in need for EPO injection are vaccinated by administration of peptide [SEQ ID NO:18] using a standard procedure of peptide adsorbed on aluminum hydroxide and administered by SC injection.
Patients affected by Fabry disease are immunized with peptide of SEQ ID NO:21, using a standard procedure of peptide adsorbed on aluminium hydroxide and administered by SC injection.
The mammalian expression vector pCMV with cytomegalovirus promotor is engineered to allow the expression in CHO (Chinese hamster ovary) cells of any protein for replacement therapy, in fusion with the promiscuous CLIP-derived epitope described in example 2 [SEQ ID NO:17]. Patients in need for injection with a protein for replacement therapy are first vaccinated by administration of a peptide comprising a thioreductase motif and the modified CLIP-derived epitope described in example 2 [SEQ ID NO:18].

Another assay has as its system cytolytic CD4+ T cells. Description: Administration of epitope-tagged therapeutic protein to a previously vaccinated / cell-treated individual: activation of cytolytic CD4+ T cells and immune response to the protein. It is filed as in vivo, human. To be noted: individual pretreated with the matching redox-motif peptide or with autologous cells activated by it.

As to “CPYC-VR-FFMATRLLMQAL (CPYCVRFFMATRLLMQAL; CxxC redox motif + modified clip peptide) [SEQ ID NO:18]”, the “elicitation of epitope-specific cytolytic CD4+ T cells” value with CD4+ T cells [1] is listed as “elicit epitope-specific cytolytic CD4+ T cells”.
For the molecule “CPYC-LF-LKSDGRVKYTLN (CPYCLFLKSDGRVKYTLN; CxxC + redox motif apolipoprotein B-100 epitope) [SEQ ID NO:21]”, the “elicitation of specific CD4+ T cells with cytolytic properties” value in the assay with CD4+ T cells [2] is reported as “Epitope-specific cytolytic CD4+ T cells are then produced”.

B1: modified alpha-galactosidase: recombinant alpha-galactosidase modified to contain the LFLKSDGRVKYTLN promiscuous epitope (protein)
chain: LFLKSDGRVKYTLNDNGLARTPTMGWLHWERFMCNLDCQEEPDSCISEKLFMEMAELMVSEGWKDAGYEYLCIDDCWMAPQRDSEGRLQADPQRFPHGIRQLANYVHSKGLKLGIYADVGNKTCAGFPGSFGYYDIDAQTFADWGVDLLKFDGCYCDSLENLADGYKHMSLALNRTGRSIVYSCEWPLYMWPFQKPNYTEIRQYCNHWRNFADIDDSWKSIKSILDWTSFNQERIVDVAGPGGWNDPDMLVIGNFGLSWNQQVTQMALWAIMAAPLFMSNDLRHISPQAKALLQDKDVIAINQDPLGKQGYQLRQGDNFEVWERPLSGLAWAVAMINRQEIGGPRSYTIAVASLGKGVACNPACFITQLLPVKRKLGFYEWTSRLRSHINPTGTVLLQLENTMQMSLKDLL
modifications: apolipoprotein B-100 epitope + alpha galactosidase
As for B1, the “immune response towards the therapeutic protein” value in the assay on cytolytic CD4+ T cells is “does not elicit an immune response to alpha-galactosidase”.
